# Measured values published in ChEMBL document CHEMBL1201862, “PubChem BioAssay data set” (2004).
#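 Results reflect a 48-hour exposure of cells in 96-well plates to compound at five concentrations. GI50: concentration for 50% inhibition of growth.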 Calls of active or inactive are those of the source. Rule as the data show it: active = GI50 up to about 1.1 µM and inactive = higher.
# Columns and labels:
# Assay in all cases: inhibition of tumour cell growth, NCI panel, 48 h
# LOX IMVI = tested on: LOX IMVI
# COLO 205 = tested on: COLO 205
# HCC 2998 = tested on: HCC 2998
# RPMI-8226 = tested on: RPMI-8226
# RXF 393 = tested on: RXF 393
# ACHN = tested on: ACHN
# T47D = tested on: T47D
# SR = tested on: SR
# OVCAR-4 = tested on: OVCAR-4
# SK-MEL-28 = tested on: SK-MEL-28
# OVCAR-8 = tested on: OVCAR-8
# MDA-N = tested on: MDA-N
# OVCAR-5 = tested on: OVCAR-5
# CCRF-CEM = tested on: CCRF-CEM
# HT-29 = tested on: HT-29
# SF-539 = tested on: SF-539
# IGROV-1 = tested on: IGROV-1
# SNB-19 = tested on: SNB-19
# K562 = tested on: K562
# SK-OV-3 = tested on: SK-OV-3
SMILES,GI50 (LOX IMVI),GI50 (COLO 205),GI50 (HCC 2998),GI50 (RPMI-8226),GI50 (RXF 393),GI50 (ACHN),GI50 (T47D),GI50 (SR),GI50 (OVCAR-4),GI50 (SK-MEL-28),GI50 (OVCAR-8),GI50 (MDA-N),GI50 (OVCAR-5),GI50 (CCRF-CEM),GI50 (HT-29),GI50 (SF-539),GI50 (IGROV-1),GI50 (SNB-19),GI50 (K562),GI50 (SK-OV-3)
O=C(CC(O)(C(F)(F)F)C(F)(F)F)c1cc(CC(=O)C(O)(C(F)(F)F)C(F)(F)F)cc(CC(=O)C(O)(C(F)(F)F)C(F)(F)F)c1,1.14 µM (inactive),1.61 µM (inactive),1.54 µM (inactive),> 10 µM (inactive),1.47 µM (inactive),0.802 µM (active),0.419 µM (active),6.78 µM (inactive),1.77 µM (inactive),1.64 µM (inactive),1.95 µM (inactive),2.64 µM (inactive),3.01 µM (inactive),> 10 µM (inactive),1.4 µM (inactive),2.05 µM (inactive),1.65 µM (inactive),2.67 µM (inactive),> 10 µM (inactive),2.14 µM (inactive)
COC(=O)/C=C1/OC(c2ccc(Br)cc2)=C(Br)C1=O,3.84 µM (inactive),1.89 µM (inactive),7.66 µM (inactive),2.26 µM (inactive),4.94 µM (inactive),7.23 µM (inactive),5.55 µM (inactive),0.179 µM (active),5.16 µM (inactive),12 µM (inactive),3.29 µM (inactive),5.26 µM (inactive),6.34 µM (inactive),1.82 µM (inactive),4.29 µM (inactive),5.94 µM (inactive),6.34 µM (inactive),10.4 µM (inactive),2.47 µM (inactive),19.9 µM (inactive)
COc1ccccc1C1C2=C(COC2=O)OC(C)(C)Oc2cc3c(cc21)OCO3 (stereo not given),5.16 µM (inactive),1.04 µM (active),7.29 µM (inactive),4.03 µM (inactive),1.06 µM (active),7.91 µM (inactive),5.93 µM (inactive),3.44 µM (inactive),10.3 µM (inactive),7.28 µM (inactive),5.12 µM (inactive),0.65 µM (active),13.4 µM (inactive),4.06 µM (inactive),3.47 µM (inactive),2.74 µM (inactive),5.35 µM (inactive),3.8 µM (inactive),1.34 µM (inactive),4 µM (inactive)
OC1(c2cccs2)c2cccc(Cl)c2C(O)(c2cccs2)c2c(Cl)cccc21 (stereo not given),> 100 µM (inactive),> 100 µM (inactive),> 100 µM (inactive),> 100 µM (inactive),> 100 µM (inactive),> 100 µM (inactive),> 100 µM (inactive),36.6 µM (inactive),> 100 µM (inactive),> 100 µM (inactive),58.9 µM (inactive),> 100 µM (inactive),> 100 µM (inactive),93.3 µM (inactive),> 100 µM (inactive),37 µM (inactive),88.5 µM (inactive),33.2 µM (inactive),> 100 µM (inactive),81.5 µM (inactive)
CCOC(=O)c1c(O)nc2cccc3c2c1-c1cccnc1S3,25.1 µM (inactive),35.9 µM (inactive),50.2 µM (inactive),17.5 µM (inactive),11 µM (inactive),28.8 µM (inactive),9.86 µM (inactive),28.6 µM (inactive),33.1 µM (inactive),30.8 µM (inactive),35.5 µM (inactive),39 µM (inactive),24 µM (inactive),24 µM (inactive),29.4 µM (inactive),27.6 µM (inactive),16.9 µM (inactive),33.8 µM (inactive),32.1 µM (inactive),30.9 µM (inactive)
CN1CCN(C(=S)N2CCN(C)CC2)CC1,> 100 µM (inactive),1.37 µM (inactive),> 61.5 µM (inactive),2.06 µM (inactive),> 100 µM (inactive),> 100 µM (inactive),2.11 µM (inactive),0.213 µM (active),> 65.2 µM (inactive),> 100 µM (inactive),> 100 µM (inactive),> 26.6 µM (inactive),> 100 µM (inactive),0.7 µM (active),1.73 µM (inactive),10.8 µM (inactive),> 84.3 µM (inactive),> 100 µM (inactive),7.98 µM (inactive),> 30.1 µM (inactive)
CS(=O)(=O)OCCN(CCOS(C)(=O)=O)c1ccc(/C=N/c2ccc(-c3csc(Cc4ccccc4)n3)cc2)c(Cl)c1,20.1 µM (inactive),15.1 µM (inactive),10.9 µM (inactive),23.8 µM (inactive),33.7 µM (inactive),30.7 µM (inactive),30.8 µM (inactive),23.7 µM (inactive),31.7 µM (inactive),45.1 µM (inactive),27.4 µM (inactive),21.6 µM (inactive),5.01 µM (inactive),10.1 µM (inactive),21.9 µM (inactive),22.8 µM (inactive),18.2 µM (inactive),> 45.3 µM (inactive),12.5 µM (inactive),43.5 µM (inactive)
COC(=O)c1cc(C(=CCC[C@H]2CC[C@@]3(C)C(CCC4C3CC[C@@]3(C)C4CC[C@@H]3C(C)CCCC(C)C)C2)c2cc(Cl)c(OC(=O)c3ccccc3)c(C(=O)OC)c2)cc(Cl)c1OC(=O)c1ccccc1 (stereo not given in full),> 10 µM (inactive),> 10 µM (inactive),> 10 µM (inactive),> 10 µM (inactive),> 10 µM (inactive),> 10 µM (inactive),> 10 µM (inactive),> 10 µM (inactive),> 10 µM (inactive),> 10 µM (inactive),> 10 µM (inactive),> 10 µM (inactive),> 10 µM (inactive),> 10 µM (inactive),> 10 µM (inactive),> 10 µM (inactive),> 10 µM (inactive),> 10 µM (inactive),> 10 µM (inactive),> 10 µM (inactive)
